From paper PMC10980815, “Cell surface patching via CXCR4-targeted nanothreads for cancer metastasis inhibition” (Nature Communications, 2024)
Several values for one entry are separate records, joined by “and”; a condition that tells them apart may be missing. Identical values can stand only once. Ends that are not written are not given here.

What was measured:
4T1 cells [1] = experiment: Extracellular ATP release in vitro; format: cell-based, murine
Method: (§1) For the investigation of CXCR4 downstream PI3K signals, cells were fixed, permeabilized, and stained with anti-PI 3 kinase p85 alpha recombinant rabbit monoclonal antibody (1:500 dilution, 4 °C, 1 h) and goat anti-rabbit IgG H&L Alexa Fluor® 647 (1:1000 dilution, 4 °C, 30 min), followed by flow cytometry analysis. For the investigation of ICD hallmarks, cells were stained with anti-calreticulin recombinant rabbit monoclonal antibody (1:500 dilution, 4 °C, 1 h) and goat anti-rabbit IgG H&L Alexa Fluor® 647 (1:1000 dilution, 4 °C, 40 min), followed by flow cytometry analysis. ATP levels in the cell culture supernatant were measured following the protocol of luciferase-based ATP assay kit.

[2] = system: orthotopic 4T1 breast tumors; experiment: IFN-γ+CD8+ T lymphocytes in primary tumors; format: in vivo, female BALB/c mice; conditions: groups marked (+) (laser irradiation); individual mice, n = 5
Method: 4T1 cells (1 × 10^6 cells) were injected into the third mammary fat pad of female BALB/c mice (6–8-week). When tumor volumes reached nearly […] on day 7 after tumor inoculation, mice were randomly divided into 8 groups (n = 8 per group). For four groups without laser irradiation (−), mice were intravenously injected with the following samples: (1) saline on day 7, 14, 21, and 28, (2) P-PS on day 7, 14, 21, and 28, (3) P-BS-PS on day 7, 14, 21, and 28, or (4) P-BS-CM1 on day 7, 14, 21, and 28, followed by P-PS-CM2 on day 8, 15, 22, and 29 (5 mg/kg BS equivalence, CM1:CM2 1:1 mol%, 2.5 mg/kg PS equivalence), respectively. For four groups with laser irradiation (+), mice were treated with the same regimens and irradiated at 650 nm laser (580 mW/cm^2, 5 min) on day 9, 16, 23 and 30. Tumor volumes and mice survivals were recorded every other day. For the investigation of immune response and lung metastasis, 4T1 tumor-bearing female BALB/c mice (6–8-week, tumor volume~100 mm^3) were randomly divided into 8 groups (n = 5 per group) and given three rounds of above treatments. […] The pulmonary metastatic nodules were counted and analyzed by hematoxylin-eosin staining. […] ATP and HMGB1 concentrations in the supernatant of cell suspension were measured using a luciferase-based ATP assay kit and a mouse HMGB1 ELISA kit, respectively. […] Tumor volumes and mice survivals were recorded every other day.

4T1 cells [3] = experiment: Photosensitizer cell binding (flow cytometry, confocal); format: cell-based, murine
Method: For cell binding investigation, 4T1 cells (4 × 10^5 cells/well) were seeded onto 12-well plates (NEST Biotechnology), and treated with i) P-PS for 1 h, ii) P-BS-PS for 1 h, or iii) P-BS-CM1 for 1 h followed by P-PS-CM2 for another 1 h (50 μg/mL BS equivalence, CM1:CM2 1:1 mol%, 25 μg/mL PS equivalence), respectively. Subsequently, cells were washed three times with PBS and observed using flow cytometry and confocal microscopy.

[4] = system: orthotopic 4T1 breast tumors; experiment: PDT efficacy in vivo: primary tumor growth, survival, lung metastasis; set-up: species or system female BALB/c mice
Method: (§2) 4T1 cells (1 × 10^6 cells) were injected into the third mammary fat pad of female BALB/c mice (6–8-week). When tumor volumes reached nearly […] on day 7 after tumor inoculation, mice were randomly divided into 8 groups (n = 8 per group). For four groups without laser irradiation (−), mice were intravenously injected with the following samples: (1) saline on day 7, 14, 21, and 28, (2) P-PS on day 7, 14, 21, and 28, (3) P-BS-PS on day 7, 14, 21, and 28, or (4) P-BS-CM1 on day 7, 14, 21, and 28, followed by P-PS-CM2 on day 8, 15, 22, and 29 (5 mg/kg BS equivalence, CM1:CM2 1:1 mol%, 2.5 mg/kg PS equivalence), respectively. For four groups with laser irradiation (+), mice were treated with the same regimens and irradiated at 650 nm laser (580 mW/cm^2, 5 min) on day 9, 16, 23 and 30. Tumor volumes and mice survivals were recorded every other day. For the investigation of immune response and lung metastasis, 4T1 tumor-bearing female BALB/c mice (6–8-week, tumor volume~100 mm^3) were randomly divided into 8 groups (n = 5 per group) and given three rounds of above treatments. On day 28, lungs and tumors were harvested. lungs were fixed with Bouin’s solution. The pulmonary metastatic nodules were counted and analyzed by hematoxylin-eosin staining. Single-cell suspensions of tumor tissues were stained with anti-CD45-PerCP/Cy5.5 (1:300 dilution) and anti-calreticulin recombinant rabbit monoclonal antibody (1:500 dilution) at 4 °C for 1 h, and then stained with goat anti-rabbit IgG H&L Alexa Fluor® 647 (1:1000 dilution, 4 °C, 45 min), followed by flow cytometry analysis. ATP and HMGB1 concentrations in the supernatant of cell suspension were measured using a luciferase-based ATP assay kit and a mouse HMGB1 ELISA kit, respectively. Single-cell suspensions of tumors were stained with FITC anti-mouse CD3 antibody (1:300 dilution), PerCP/Cyanine5.5 anti-mouse CD4 antibody (1:300 dilution), anti-CD8α-APC (1:300 dilution), and anti-Foxp3-PE (1:300 dilution) for flow cytometry analysis of T cell subtypes (CD8^+ T cells, CD4^+ effector T cells, and Foxp3^+ regulatory T cells), and stained with PE anti-mouse/human CD11b antibody (1:300 dilution) and FITC anti-mouse Ly-6G/Ly-6C (Gr-1) antibody (1:300 dilution) for flow cytometry analysis of MDSCs (CD11b^+Gr1^+). Cytotoxic T cells in tumor tissues were investigated with immunofluorescent staining of IFN-γ and flow cytometry analysis using anti-IFN-γ-PE (1:300 dilution). For CD8-depletion assay, 4T1 tumor-bearing female BALB/c mice (6–8-week, tumor volume~100 mm^3) were randomly divided into 3 groups (n = 8 per group). Mice were intravenously given four doses of P-BS-CM1 on day 7, 14, 21 and 28, combined with P-PS-CM2 on day 8, 15, 22 and 29 (5 mg/kg BS equivalence, CM1:CM2 1:1 mol%, 2.5 mg/kg PS equivalence) in the presence or absence of InvivoMab anti-mouse CD8α (100 μg/mice). Mice were irradiated at 650 nm laser (580 mW/cm^2, 5 min) on day 9, 16, 23 and 30. Tumor volumes and mice survivals were recorded every other day.

ζ-potential (Zetasizer) = format: physicochemical; conditions: Malvern Zetasizer Nano ZS90; mean ± SD
Method: (§3) The average molecular weight (Mw) and polydispersity (PDI) of the HPMA copolymer conjugates were determined by gel permeation chromatography (GPC) on an AKTA purifier equipment with a Superose 6 10/300 GL analytical column (GE Healthcare, USA) and a differential refraction detector (KNAUER, 2300, Germany). Hydrodynamic sizes and zeta potentials were determined using a Malvern Zetasizer Nano ZS90 equipment (Malvern Instruments Ltd, Malvern, UK). The contents of BS, CM1, and CM2 were determined using a bicinchoninic acid (BCA) protein assay. The PS concentration was determined by ultraviolet-visible (UV-Vis) spectroscopy at its characteristic absorbance peak (660 nm).

[5] = system: orthotopic 4T1 breast tumors; experiment: Intratumoral ICD hallmarks (CRT, ATP, HMGB1); format: in vivo, female BALB/c mice; conditions: individual mice
Method: as §2

[6] = Hydrodynamic size / size distribution by dynamic light scattering; format: physicochemical; conditions: Malvern Zetasizer Nano ZS90, mean ± SD
Method: as §3
To investigate the coiled-coil assembly, varying CM1-to-CM2 ratios (3:1, 1:1, and 1:3) of P-BS-CM1 and P-CM2 were mixed in 10 mM PBS (pH 7.4) at 25 °C for 10 min. The total polymer concentration was kept constant at 10 mg/mL. Circular dichroism spectra, size distribution, and rheological properties of P-BS-CM1, P-CM2, and their mixture were measured. The surface morphology of P-BS-CM1 and the mixture (P-BS-CM1 + P-CM2) was observed using scanning electron microscopy. Additionally, for the FRET assay, CM1-to-CM2 equimolar of P-BS-CM1-Cy5 and P-CM2-Cy3 were mixed in 10 mM PBS (pH 7.4) at 25 °C for 10 min. Fluorescent spectra of P-BS-CM1-Cy5, P-CM2-Cy3, and the mixture (P-BS-CM1-Cy5+P-CM2-Cy3) were recorded at the Cy3 excitation wavelength of 550 nm.

4T1 cells [7] = experiment: Calreticulin exposure in vitro (flow cytometry); format: cell-based, murine
Method: as §1

[8] = groups marked (+) (laser irradiation), n = 5
[9] = groups marked (-) (no laser irradiation), n = 5

## P-BS-PS: BS-multivalently-modified polymer-PS conjugate (LGASWHRPDKCCLGYQKRPLPA; not fully specified (residues 11, 12); cysteine pairing not given here; also: chlorin e6 photosensitizer on polymer)
4T1 cells [1]; replicate 1
  Extracellular ATP: 52.31 nM
4T1 cells [1]; replicate 2
  Extracellular ATP: 40.65 nM
4T1 cells [1]; replicate 3
  Extracellular ATP: 40.42 nM
[2]
  IFN-γ+ cells (%) in tumor-infiltrating CD8+ cells: 13.27% and 14.75% and 15.74% and 11.82% and 15.65%
4T1 cells [3]; replicate 1
  Photosensitizer cell binding (fluorescence, Fig. 7a): 507603
4T1 cells [3]; replicate 2
  Photosensitizer cell binding (fluorescence, Fig. 7a): 505554
4T1 cells [3]; replicate 3
  Photosensitizer cell binding (fluorescence, Fig. 7a): 480665
[4]; (+) with laser, mouse 1 of 5
  Number of lung metastatic nodules: 11
[4]; (+) with laser, mouse 2 of 5
  Number of lung metastatic nodules: 13
[4]; (+) with laser, mouse 3 of 5
  Number of lung metastatic nodules: 6
[4]; (+) with laser, mouse 4 of 5
  Number of lung metastatic nodules: 9
[4]; (+) with laser, mouse 5 of 5
  Number of lung metastatic nodules: 7
[4]; (-) no laser, mouse 1 of 5
  Number of lung metastatic nodules: 24
[4]; (-) no laser, mouse 2 of 5
  Number of lung metastatic nodules: 27
[4]; (-) no laser, mouse 3 of 5
  Number of lung metastatic nodules: 22
[4]; (-) no laser, mouse 4 of 5
  Number of lung metastatic nodules: 23
[4]; (-) no laser, mouse 5 of 5
  Number of lung metastatic nodules: 21
ζ-potential (Zetasizer)
  ζ-potential: -18.24±2.31 mV
[5]; [8]
  ATP per tumor weight: 345.1 µmol/g and 303.2 µmol/g and 231.5 µmol/g and 287.7 µmol/g and 298.1 µmol/g
  CRT expression in tumor (MFI): 34335.1 MFI and 38552.2 MFI and 29253.6 MFI and 35944.5 MFI and 36607.6 MFI
  HMGB1 per tumor weight: 80.13 ng/g and 70.54 ng/g and 88.61 ng/g and 92.56 ng/g and 89.1 ng/g
[5]; [9]
  ATP per tumor weight: 191.5 µmol/g and 151.37 µmol/g and 120.13 µmol/g and 106.4 µmol/g and 205.73 µmol/g
  HMGB1 per tumor weight: 19.76 ng/g and 15.34 ng/g and 14.57 ng/g and 18.95 ng/g and 19.22 ng/g
[5]; groups marked (-) (no laser irradiation), n = 5, one line each
  CRT expression in tumor (MFI): 27343 MFI and 22321 MFI and 19321 MFI and 23431 MFI and 20197 MFI
[6]
  Size: 22.4±1.4 nm
4T1 cells [7]; replicate 1
  CRT positive cells (%): 20.53%
4T1 cells [7]; replicate 2
  CRT positive cells (%): 18.21%
4T1 cells [7]; replicate 3
  CRT positive cells (%): 17.1%
